Test results from patent US12582617B2, “Methods for treating cancer” (RADIUS PHARMACEUTICALS, INC., priority 2015, dated 2026).
Counter-ions that a name gives are not always drawn.

Assay: Phase 1 dose escalation study: safety, treatment related AEs
Assay type: in vivo
Protocol: The subjects were 40-75 years old with BMI of 18.0-30 kg/m^2. Subjects having evidence of clinically relevant pathology, increased risk of stroke or of history venous thromboembolic events, or use of concomitant medication less than 14 days prior to admission to clinical research center (paracetamol allowed up to 3 days prior) were excluded.
The subjects were treated with placebo or at least one dose p.o., q.d. after a light breakfast for 7 days at dose levels of 200 mg, 500 mg, 750 mg and 1000 mg, respectively.

[1] = 200 to 1000 mg p.o., q.d., 7 days

## CCNCCc1ccc(CN(CC)c2cc(OC)ccc2[C@@H]2CCc3cc(O)ccc3C2)cc1 [RAD1901, (6R)-6-(2-(N-(4-(2-(ethylamino)ethyl)benzyl)-N-ethylamino)-4-methoxyphenyl)-5,6,7,8-tetrahydronaphthalen-2-ol dihydrochloride]
750 mg, Gr3
  Abdominal distension (treatment related AE): 0 n(%)
  Abdominal pain (treatment related AE): 0 n(%)
  Diarrhoea (treatment related AE): 0 n(%)
  Dizziness (treatment related AE): 0 n(%)
  Dyspepsia (treatment related AE): 0 n(%)
  Dysphagia (treatment related AE): 0 n(%)
  Flatulance (treatment related AE): 0 n(%)
  Headache (treatment related AE): 0 n(%)
  Hiccups (treatment related AE): 0 n(%)
  Hot flush (treatment related AE): 0 n(%)
  Myalgia (treatment related AE): 0 n(%)
  Nausea (treatment related AE): 0 n(%)
  Odynophagia (treatment related AE): 0 n(%)
  Oesophageal pain (treatment related AE): 0 n(%)
  Salivary hypersecretion (treatment related AE): 0 n(%)
  Sensation of a foreign body (treatment related AE): 0 n(%)
  Vomiting (treatment related AE): 0 n(%)
1000 mg, Gr1
  Abdominal discomfort (treatment related AE): 0 n(%)
  Abdominal distension (treatment related AE): 2 (29) n(%)
  Abdominal pain (treatment related AE): 1 (14) n(%)
  Diarrhoea (treatment related AE): 3 (43) n(%)
  Dizziness (treatment related AE): 1 (14) n(%)
  Dyspepsia (treatment related AE): 1 (14) n(%)
  Dysphagia (treatment related AE): 0 n(%)
  Flatulance (treatment related AE): 0 n(%)
  Headache (treatment related AE): 2 (29) n(%)
  Hiccups (treatment related AE): 2 (29) n(%)
  Hot flush (treatment related AE): 1 (14) n(%)
  Myalgia (treatment related AE): 0 n(%)
  Nausea (treatment related AE): 4 (57) n(%)
  Odynophagia (treatment related AE): 1 (14) n(%)
  Oesophageal pain (treatment related AE): 1 (14) n(%)
  Salivary hypersecretion (treatment related AE): 2 (29) n(%)
  Sensation of a foreign body (treatment related AE): 4 (57) n(%)
  Vomiting (treatment related AE): 0 n(%)
1000 mg, Gr2
  Abdominal discomfort (treatment related AE): 0 n(%)
  Abdominal distension (treatment related AE): 0 n(%)
  Abdominal pain (treatment related AE): 1 n(%)
  Diarrhoea (treatment related AE): 1 n(%)
  Dizziness (treatment related AE): 0 n(%)
  Dyspepsia (treatment related AE): 1 n(%)
  Dysphagia (treatment related AE): 0 n(%)
  Flatulance (treatment related AE): 0 n(%)
  Headache (treatment related AE): 0 n(%)
  Hiccups (treatment related AE): 0 n(%)
  Hot flush (treatment related AE): 0 n(%)
  Myalgia (treatment related AE): 0 n(%)
  Nausea (treatment related AE): 2 n(%)
  Odynophagia (treatment related AE): 1 n(%)
  Oesophageal pain (treatment related AE): 1 n(%)
  Salivary hypersecretion (treatment related AE): 0 n(%)
  Sensation of a foreign body (treatment related AE): 0 n(%)
  Vomiting (treatment related AE): 3 n(%)
1000 mg, Gr3
  Abdominal discomfort (treatment related AE): 0 n(%)
  Abdominal distension (treatment related AE): 0 n(%)
  Abdominal pain (treatment related AE): 0 n(%)
  Diarrhoea (treatment related AE): 0 n(%)
  Dizziness (treatment related AE): 0 n(%)
  Dyspepsia (treatment related AE): 0 n(%)
  Dysphagia (treatment related AE): 0 n(%)
  Flatulance (treatment related AE): 0 n(%)
  Headache (treatment related AE): 0 n(%)
  Hiccups (treatment related AE): 0 n(%)
  Hot flush (treatment related AE): 0 n(%)
  Myalgia (treatment related AE): 0 n(%)
  Nausea (treatment related AE): 0 n(%)
  Odynophagia (treatment related AE): 0 n(%)
  Oesophageal pain (treatment related AE): 1 n(%)
  Salivary hypersecretion (treatment related AE): 0 n(%)
  Sensation of a foreign body (treatment related AE): 0 n(%)
  Vomiting (treatment related AE): 0 n(%)
[1]
  dose limiting toxicities (in words): No dose limiting toxicities (DLT) were observed
  maximum tolerated dose (MTD) (in words): not established
Total Active, Gr1
  Abdominal discomfort (treatment related AE): 4 n(%)
  Abdominal distension (treatment related AE): 5 n(%)
  Abdominal pain (treatment related AE): 7 n(%)
  Diarrhoea (treatment related AE): 6 n(%)
  Dizziness (treatment related AE): 5 n(%)
  Dyspepsia (treatment related AE): 13 n(%)
  Dysphagia (treatment related AE): 4 n(%)
  Flatulance (treatment related AE): 5 n(%)
  Headache (treatment related AE): 9 n(%)
  Hiccups (treatment related AE): 9 n(%)
  Hot flush (treatment related AE): 11 n(%)
  Myalgia (treatment related AE): 3 n(%)
  Nausea (treatment related AE): 14 n(%)
  Odynophagia (treatment related AE): 4 n(%)
  Oesophageal pain (treatment related AE): 3 n(%)
  Salivary hypersecretion (treatment related AE): 8 n(%)
  Sensation of a foreign body (treatment related AE): 7 n(%)
  Vomiting (treatment related AE): 3 n(%)
Total Active, Gr2
  Abdominal discomfort (treatment related AE): 1 n(%)
  Abdominal distension (treatment related AE): 1 n(%)
  Abdominal pain (treatment related AE): 3 n(%)
  Diarrhoea (treatment related AE): 1 n(%)
  Dizziness (treatment related AE): 0 n(%)
  Dyspepsia (treatment related AE): 3 n(%)
  Dysphagia (treatment related AE): 3 n(%)
  Flatulance (treatment related AE): 0 n(%)
  Headache (treatment related AE): 1 n(%)
  Hiccups (treatment related AE): 0 n(%)
  Hot flush (treatment related AE): 0 n(%)
  Myalgia (treatment related AE): 2 n(%)
  Nausea (treatment related AE): 5 n(%)
  Odynophagia (treatment related AE): 2 n(%)
  Oesophageal pain (treatment related AE): 6 n(%)
  Salivary hypersecretion (treatment related AE): 0 n(%)
  Sensation of a foreign body (treatment related AE): 0 n(%)
  Vomiting (treatment related AE): 10 n(%)
Total Active, Gr3
  Abdominal discomfort (treatment related AE): 0 n(%)
  Abdominal distension (treatment related AE): 0 n(%)
  Abdominal pain (treatment related AE): 0 n(%)
  Diarrhoea (treatment related AE): 0 n(%)
  Dizziness (treatment related AE): 0 n(%)
  Dyspepsia (treatment related AE): 0 n(%)
  Dysphagia (treatment related AE): 0 n(%)
  Flatulance (treatment related AE): 0 n(%)
  Headache (treatment related AE): 0 n(%)
  Hiccups (treatment related AE): 0 n(%)
  Hot flush (treatment related AE): 0 n(%)
  Myalgia (treatment related AE): 0 n(%)
  Nausea (treatment related AE): 0 n(%)
  Odynophagia (treatment related AE): 0 n(%)
  Oesophageal pain (treatment related AE): 1 n(%)
  Salivary hypersecretion (treatment related AE): 0 n(%)
  Sensation of a foreign body (treatment related AE): 0 n(%)
  Vomiting (treatment related AE): 1 n(%)
Total TEAE, All
  Abdominal discomfort (treatment related AE): 5 (11)
  Abdominal distension (treatment related AE): 6 (14)
  Abdominal pain (treatment related AE): 10 (23)
  Diarrhoea (treatment related AE): 7 (16)
  Dizziness (treatment related AE): 5 (11)
  Dyspepsia (treatment related AE): 16 (36)
  Dysphagia (treatment related AE): 7 (16)
  Flatulance (treatment related AE): 5 (11)
  Headache (treatment related AE): 10 (23)
  Hiccups (treatment related AE): 9 (20)
  Hot flush (treatment related AE): 11 (25)
  Myalgia (treatment related AE): 5 (11)
  Nausea (treatment related AE): 19 (43)
  Odynophagia (treatment related AE): 6 (14)
  Oesophageal pain (treatment related AE): 10 (23)
  Salivary hypersecretion (treatment related AE): 8 (18)
  Sensation of a foreign body (treatment related AE): 7 (16)
  Vomiting (treatment related AE): 14 (32)
